Data on five compounds can be found in patent US12116388B2, “Amylin receptor agonists” (Novo Nordisk A/S, priority 2022, dated 2024).

Starred links: 1 amine or outer side, 2 acyl side, 3 side chain; linkers in the order of their positions; H or OH if unused. Residues, ends and D or L forms follow the SMILES beside them. *: point of attachment. C20 diacid = O=C(O)CCCCCCCCCCCCCCCCCCC(=O)*; C18 diacid = O=C(O)CCCCCCCCCCCCCCCCC(=O)*; γGlu = O=C(O)[C@H](CCC(=O)[*:2])N[*:1]

The data set is described as follows: Oral pharmacokinetic profiles in Beagle dogs (SNAC tablets). It is filed as in vivo. The following applies: oral tablet: 3 mg compound, 300 mg SNAC, 7.7 mg magnesium stearate; for half-life: male, dog, plasma, read-out: T½ (converted). The protocol:
To be able to evaluate oral exposure following tablet dosing, tablet compositions comprising the test substance and SNAC (sodium N-(8-(2-hydroxybenzoyl)amino)caprylate) were prepared by mixing test substance with roller compacted SNAC and magnesium stearate as, e.g., described in WO 2019/149880.
This assay was performed to measure the oral bioavailability of a compound. The assay determined the exposure of test compound following oral administration in Beagle dogs as described by relevant pharmacokinetic parameters and plasma concentration curves.
Preparation of tablets for oral administration: tablets containing test compound used for the assay described herein were immediate release SNAC-based tablets. The test compound was spray-dried as neutral sodium salt (pH 7-8). Dry granulation was carried out by roller compaction on a Gerteis MINI-PACTOR. Tablets containing 3 mg test compound, 300 mg sodium N-(8-(2-hydroxybenzoyl)amino)caprylate (SNAC) and 7.7 mg magnesium stearate were produced on at Kilian Style One using 7.2×12 mm punches.
Determination of the absorption following oral administration: eight (8) male Beagle dogs, 1 to 8 years of age and weighing approximately 10-15 kg at the start of the studies, were used. The dogs were group-housed in pens (12 hours light:12 hours dark), and fed individually and restrictedly once daily with Royal Canin Medium Adult dog (Royal Canin Products, China Branch, or Brogaarden A/S, Denmark). Exercise and group social were permitted daily, whenever possible. The dogs were used for repeated pharmacokinetic studies with a suitable wash-out period between successive dosing. An appropriate acclimatisation period was given prior to initiation of the first pharmacokinetic study. All handling, dosing and blood sampling of the animals were performed by trained and skilled staff. Before the studies the dogs were fasted overnight and from 0 to 4 h after dosing. Besides, the dogs were restricted to water 1 hour before dosing until 4 hours after dosing, but otherwise had ad libitum access to water during the whole period.
Tablets containing the test compound were administered in the following manner: 10 min prior to tablet administration the dogs were dosed subcutaneously with approximately 3.2 nmol/kg of glucagon. The tablets were placed in the back of the mouth of the dog to prevent chewing. The mouth was then closed, and 10 mL of tap water was given by a syringe to facilitate swallowing of the tablet. Blood was sampled at predefined time points for up till 288 hours after dosing to adequately cover the full plasma concentration-time absorption profile of the compound. For each blood sampling time point approximately 1.2 mL of whole blood was collected in a 1.5 mL EDTA coated tube, and the tube was gently turned to allowing mixing of the sample with the EDTA. Then, the blood samples were kept on ice until centrifugation (4 min, 4° C., 4000 rpm). Plasma was pipetted into Micronic tubes on dry ice and kept at −20° C. until analysis. Blood samples were taken as appropriate, for example from a venflon in the cephalic vein in the front leg for the first 2 hours and then with syringe from the jugular vein for the rest of the time points (the first few drops were allowed to drain from the venflon to avoid heparin saline from the venflon in the sample).
Bioanalysis was carried out as follows: plasma concentrations of test compound were assayed by plasma protein precipitation and analysed by liquid chromatography-mass spectrometry (LC-MS). Calibrators were prepared by spiking blank dog plasma with analytes to reach the final concentrations in the range typically from 0.5 to 200 nM. Calibrators, plasma blanks or study samples were prepared for LC-MS by protein precipitation by adding 3 volumes of ethanol followed by centrifugation at 4000 rpm at 4° C. for 1 h. The supernatant was diluted with 2 volumes of Milli-Q water containing 0.1% formic acid before injection on the LC-MS system. […]

With `CC[C@H](C)[C@H](NC(=O)[C@@H]1CCCN1C(=O)CNC(=O)[C@H](Cc1ccccc1)NC(=O)[C@H](Cc1c[nH]cn1)NC(=O)[C@H](Cc1c[nH]cn1)NC(=O)[C@H](CC(C)C)NC(=O)[C@H](Cc1ccccc1)NC(=O)[C@H](CCC(=O)O)NC(=O)[C@H](C)NC(=O)[C@H](CC(C)C)NC(=O)[C@H](CCCNC(=N)N)NC(=O)[C@H](CCC(N)=O)NC(=O)[C@@H](NC(=O)[C@H](CCC(N)=O)NC(=O)[C@H](C)NC(=O)[C@@H](NC(=O)[C@H](CO)NC(=O)[C@H](CC(C)C)NC(=O)[C@H](Cc1c[nH]cn1)NC(=O)[C@H](CO)NC(=O)[C@H](C)NC(=O)CC[C@H](NC(=O)CCCCCCCCCCCCCCCCCCC(=O)O)C(=O)O)[C@@H](C)O)[C@@H](C)O)C(=O)N[C@@H](CC(C)C)C(=O)N1CCC[C@H]1C(=O)N1CCC[C@H]1C(=O)N[C@H](C(=O)N[C@@H](CC(=O)O)C(=O)N[C@H](C(=O)NCC(=O)N[C@@H](CO)C(=O)N[C@@H](CCC(=O)O)C(=O)N[C@H](C(=O)N1CCC[C@H]1C(N)=O)[C@@H](C)O)C(C)C)[C@@H](C)O` [Compound 4, N^1-[(4S)-4-carboxy-4-(19-carboxynonadecanoylamino)butanoyl]-[Ala1,Ser2,His3,Leu4,Ser5,Ala7,Gln8,Glu14,His17,Pro25,Pro28,Pro29,Asp31,Glu35,Pro37],des-(19-22)-human amylin] ({C20 diacid-γGlu}-ASHLSTAQTQRLAEFLHHFGPILPPTDVGSETP-NH2), the half-life is 130 h, the “AUC/D” value is 21.24 kg·h/L and the “Cmax/D” value is listed as 0.23 kg/L.

On to `CC[C@H](C)[C@H](NC(=O)[C@H](C)NC(=O)CNC(=O)[C@H](Cc1ccccc1)NC(=O)[C@@H]1CCCN1C(=O)[C@H](CC(=O)O)NC(=O)[C@H](CO)NC(=O)[C@H](CO)NC(=O)[C@H](Cc1c[nH]cn1)NC(=O)[C@H](Cc1c[nH]cn1)NC(=O)[C@H](CC(C)C)NC(=O)[C@H](Cc1ccccc1)NC(=O)[C@H](CCC(=O)O)NC(=O)[C@H](C)NC(=O)[C@H](CC(C)C)NC(=O)[C@H](CCCNC(=N)N)NC(=O)[C@H](CCC(N)=O)NC(=O)[C@@H](NC(=O)[C@H](CCC(N)=O)NC(=O)[C@H](C)NC(=O)[C@@H](NC(=O)[C@H](CO)NC(=O)[C@H](CC(C)C)NC(=O)[C@H](Cc1c[nH]cn1)NC(=O)[C@H](CO)NC(=O)[C@H](C)NC(=O)CC[C@H](NC(=O)CCCCCCCCCCCCCCCCC(=O)O)C(=O)O)[C@@H](C)O)[C@@H](C)O)C(=O)N1CCC[C@H]1C(=O)N[C@@H](CO)C(=O)N[C@@H](CO)C(=O)N[C@H](C(=O)N[C@@H](CC(=O)O)C(=O)N[C@H](C(=O)NCC(=O)N1CCC[C@H]1C(=O)N[C@@H](CC(=O)O)C(=O)N[C@H](C(=O)N1CCC[C@H]1C(N)=O)[C@@H](C)O)C(C)C)[C@@H](C)O` [Compound 8, N^1-[(4S)-4-carboxy-4-(17-carboxyheptadecanoylamino)butanoyl]-[Ala1,Ser2,His3,Leu4,Ser5,Ala7,Gln8,Glu14,His17,Asp21,Pro22,Pro27,Asp31,Pro34,Asp35,Pro37]-human amylin] ({C18 diacid-γGlu}-ASHLSTAQTQRLAEFLHHSSDPFGAIPSSTDVGPDTP-NH2), for which the half-life is 121 h, the “AUC/D” value turned out to be 17.52 kg·h/L and the “Cmax/D” value turned out to be 0.24 kg/L.

`CC[C@H](C)[C@H](NC(=O)[C@H](C)NC(=O)CNC(=O)[C@H](Cc1ccccc1)NC(=O)[C@@H]1CCCN1C(=O)[C@H](CC(=O)O)NC(=O)[C@H](CO)NC(=O)[C@H](CO)NC(=O)[C@H](Cc1c[nH]cn1)NC(=O)[C@H](Cc1c[nH]cn1)NC(=O)[C@H](CC(C)C)NC(=O)[C@H](Cc1ccccc1)NC(=O)[C@H](CCC(=O)O)NC(=O)[C@H](C)NC(=O)[C@H](CC(C)C)NC(=O)[C@H](CCCNC(=N)N)NC(=O)[C@H](CCC(N)=O)NC(=O)[C@@H](NC(=O)[C@H](CCC(N)=O)NC(=O)[C@H](C)NC(=O)[C@@H](NC(=O)[C@H](CO)NC(=O)[C@H](CC(C)C)NC(=O)[C@H](CO)NC(=O)CNC(=O)[C@H](C)NC(=O)CC[C@H](NC(=O)CCCCCCCCCCCCCCCCC(=O)O)C(=O)O)[C@@H](C)O)[C@@H](C)O)C(=O)N1CCC[C@H]1C(=O)N[C@@H](CO)C(=O)N[C@@H](CO)C(=O)N[C@H](C(=O)N[C@@H](CC(=O)O)C(=O)N[C@H](C(=O)NCC(=O)N1CCC[C@H]1C(=O)N[C@@H](CC(=O)O)C(=O)N[C@H](C(=O)N1CCC[C@H]1C(N)=O)[C@@H](C)O)C(C)C)[C@@H](C)O` [Compound 10, N^1-[(4S)-4-carboxy-4-(17-carboxyheptadecanoylamino)butanoyl]-[Ala1,Gly2,Ser3,Leu4,Ser5,Ala7,Gln8,Glu14,His17,Asp21,Pro22,Pro27,Asp31,Pro34,Asp35,Pro37]-human amylin] ({C18 diacid-γGlu}-AGSLSTAQTQRLAEFLHHSSDPFGAIPSSTDVGPDTP-NH2): the half-life was 131 h, the “AUC/D” value is 27.73 kg·h/L and the “Cmax/D” value stood at 0.34 kg/L.

As for `CC[C@H](C)[C@H](NC(=O)[C@@H]1CCCN1C(=O)CNC(=O)[C@H](Cc1ccccc1)NC(=O)[C@H](CC(N)=O)NC(=O)[C@H](CC(=O)O)NC(=O)[C@H](CO)NC(=O)[C@H](CO)NC(=O)[C@H](Cc1c[nH]cn1)NC(=O)[C@H](Cc1c[nH]cn1)NC(=O)[C@H](CC(C)C)NC(=O)[C@H](Cc1ccccc1)NC(=O)[C@H](CCC(=O)O)NC(=O)[C@H](C)NC(=O)[C@H](CC(C)C)NC(=O)[C@H](CCCNC(=N)N)NC(=O)[C@H](C)NC(=O)[C@@H](NC(=O)[C@H](CCC(N)=O)NC(=O)[C@H](C)NC(=O)[C@@H](NC(=O)[C@H](CO)NC(=O)[C@H](CC(C)C)NC(=O)[C@H](Cc1c[nH]cn1)NC(=O)[C@H](CO)NC(=O)[C@H](C)NC(=O)CC[C@H](NC(=O)CCCCCCCCCCCCCCCCC(=O)O)C(=O)O)[C@@H](C)O)[C@@H](C)O)C(=O)N[C@@H](CC(C)C)C(=O)N1CCC[C@H]1C(=O)N1CCC[C@H]1C(=O)N[C@H](C(=O)N[C@@H](CC(=O)O)C(=O)N[C@H](C(=O)NCC(=O)N[C@@H](CO)C(=O)N[C@@H](CC(N)=O)C(=O)N[C@H](C(=O)N1CCC[C@H]1C(N)=O)[C@@H](C)O)C(C)C)[C@@H](C)O` [Compound 14, N^1-[(4S)-4-carboxy-4-(17-carboxyheptadecanoylamino)butanoyl]-[Ala1,Ser2,His3,Leu4,Ser5,Ala7,Gln8,Ala10,Glu14,His17,Asp21,Pro25,Pro28,Pro29,Asp31,Pro37]-human amylin] ({C18 diacid-γGlu}-ASHLSTAQTARLAEFLHHSSDNFGPILPPTDVGSNTP-NH2), the half-life was 113 h, the “AUC/D” value is 20.76 kg·h/L and the “Cmax/D” value stood at 0.34 kg/L.

Turning to `CC[C@H](C)[C@H](NC(=O)[C@@H]1CCCN1C(=O)CNC(=O)[C@H](Cc1ccccc1)NC(=O)[C@H](Cc1c[nH]cn1)NC(=O)[C@H](Cc1c[nH]cn1)NC(=O)[C@H](CC(C)C)NC(=O)[C@H](Cc1ccccc1)NC(=O)[C@H](CCC(=O)O)NC(=O)[C@H](C)NC(=O)[C@H](CC(C)C)NC(=O)[C@H](CCCNC(=N)N)NC(=O)[C@H](C)NC(=O)[C@@H](NC(=O)[C@H](CCC(N)=O)NC(=O)[C@H](C)NC(=O)[C@@H](NC(=O)[C@H](CO)NC(=O)[C@H](CC(C)C)NC(=O)[C@H](CCC(=O)O)NC(=O)CNC(=O)[C@H](C)NC(=O)CC[C@H](NC(=O)CCCCCCCCCCCCCCCCC(=O)O)C(=O)O)[C@@H](C)O)[C@@H](C)O)C(=O)N[C@@H](CC(C)C)C(=O)N1CCC[C@H]1C(=O)N1CCC[C@H]1C(=O)N[C@H](C(=O)N[C@@H](CC(=O)O)C(=O)N[C@H](C(=O)NCC(=O)N[C@@H](CO)C(=O)N[C@@H](CCC(=O)O)C(=O)N[C@H](C(=O)N1CCC[C@H]1C(N)=O)[C@@H](C)O)C(C)C)[C@@H](C)O` [Compound 16, N^1-[(4S)-4-carboxy-4-(17-carboxyheptadecanoylamino)butanoyl]-[Ala1,Gly2,Glu3,Leu4,Ser5,Ala7,Gln8,Ala10,Glu14,His17,Pro25,Pro28,Pro29,Asp31,Glu35,Pro37],des-(19-22)-human amylin] ({C18 diacid-γGlu}-AGELSTAQTARLAEFLHHFGPILPPTDVGSETP-NH2), the half-life was 95.8 h, the “AUC/D” value turned out to be 35.59 kg·h/L and the “Cmax/D” value worked out at 0.48 kg/L.
